This is an account of results in US20080255193A1, “Pharmaceutical Composition” (priority 2005, published 2008).

This data set can be described thus: Aqueous solubility of talnetant. It counts as physicochemical. The settings on record: aqueous medium. As to the method:
Talnetant has low aqueous solubility (approximately 0.03 mg/ml at pH 1 and 0.001 mg/ml, at pH 7.0). Typically drugs with low aqueous solubility are absorbed slowly across the walls of the gastrointestinal tract (GIT) due to poor dissolution of the solid in the GIT leading to a small diffusive driving force.

Molecules are shown by their SMILES. Values after ≈ are worked out from the molar mass of the structure shown.

Take `CC[C@H](NC(=O)c1c(O)c(-c2ccccc2)nc2ccccc12)c1ccccc1` [Talnetant, (S)-(−)-N-(α-ethylbenzyl)-3-hydroxy-2-phenylquinoline-4-carboxamide]: the solubility reads like this: (aqueous buffer, pH 7.0) roughly 1 µg/mL (≈ 2.61 µM); (pH 1, simulated gastric fluid) roughly 30 µg/mL (≈ 78.4 µM).

By solubility is commonly meant the concentration that dissolves in the medium under given conditions.
